Data: ChEMBL document CHEMBL1201862, “PubChem BioAssay data set” (2004)
Calls of active or inactive are those of the source.

Experiments:
[1] = target: Intestinal-type alkaline phosphatase (Mus musculus, UniProt P24822); assay: PubChem AID 488785; format: functional
[2] = target: T1, Alkaline phosphatase, tissue-nonspecific isozyme (Homo sapiens, UniProt P05186); assay: TNAP enzyme inhibition by screening hits, dose response, selectivity assay for mouse IAP inhibitor project, biochemical, human TNAP, uHTS hits (AID 488906); format: functional
T1 sequence (P05186 whole entry): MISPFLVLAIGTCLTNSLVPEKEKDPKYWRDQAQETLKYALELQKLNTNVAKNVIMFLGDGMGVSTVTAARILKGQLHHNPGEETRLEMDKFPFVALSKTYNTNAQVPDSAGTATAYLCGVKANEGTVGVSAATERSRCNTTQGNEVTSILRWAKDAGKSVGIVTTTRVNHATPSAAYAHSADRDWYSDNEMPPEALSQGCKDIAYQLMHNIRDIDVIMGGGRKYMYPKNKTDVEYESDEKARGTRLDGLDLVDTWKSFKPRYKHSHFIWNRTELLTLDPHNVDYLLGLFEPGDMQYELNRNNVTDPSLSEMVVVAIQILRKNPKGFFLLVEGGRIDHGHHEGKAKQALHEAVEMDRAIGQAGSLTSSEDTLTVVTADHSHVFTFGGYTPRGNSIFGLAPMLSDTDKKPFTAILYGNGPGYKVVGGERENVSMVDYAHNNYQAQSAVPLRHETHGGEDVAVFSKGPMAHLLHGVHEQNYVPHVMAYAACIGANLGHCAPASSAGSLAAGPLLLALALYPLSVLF

[3] = target: Intestinal-type alkaline phosphatase (Homo sapiens, UniProt P09923); assay: inhibition of human intestinal alkaline phosphatase – biochemical, dose response (AID 488876); format: functional
Sequence of Intestinal-type alkaline phosphatase (Homo sapiens, UniProt P09923) (P09923 whole entry): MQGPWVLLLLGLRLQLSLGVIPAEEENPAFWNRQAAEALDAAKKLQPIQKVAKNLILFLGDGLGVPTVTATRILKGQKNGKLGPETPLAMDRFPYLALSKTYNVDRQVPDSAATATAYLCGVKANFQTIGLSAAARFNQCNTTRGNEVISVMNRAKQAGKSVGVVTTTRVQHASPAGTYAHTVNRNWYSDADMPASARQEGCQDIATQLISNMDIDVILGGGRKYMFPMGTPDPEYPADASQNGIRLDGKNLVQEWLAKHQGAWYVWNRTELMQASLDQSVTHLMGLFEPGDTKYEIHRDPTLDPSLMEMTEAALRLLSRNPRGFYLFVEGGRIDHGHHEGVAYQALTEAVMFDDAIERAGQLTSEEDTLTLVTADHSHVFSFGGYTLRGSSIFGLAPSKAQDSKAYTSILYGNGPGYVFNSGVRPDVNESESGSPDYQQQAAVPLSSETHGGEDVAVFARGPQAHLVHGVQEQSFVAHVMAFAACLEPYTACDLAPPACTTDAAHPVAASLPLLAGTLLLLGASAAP

[4] = target: Lysine-specific demethylase 4C (Homo sapiens, UniProt Q9H3R0); assay: GASC-1 (JMJD2C) histone demethylase inhibitors, dose response, biochemical, DELFIA europium, cherry-picked samples (AID 488835); format: functional
Sequence of Lysine-specific demethylase 4C (Q9H3R0 whole entry): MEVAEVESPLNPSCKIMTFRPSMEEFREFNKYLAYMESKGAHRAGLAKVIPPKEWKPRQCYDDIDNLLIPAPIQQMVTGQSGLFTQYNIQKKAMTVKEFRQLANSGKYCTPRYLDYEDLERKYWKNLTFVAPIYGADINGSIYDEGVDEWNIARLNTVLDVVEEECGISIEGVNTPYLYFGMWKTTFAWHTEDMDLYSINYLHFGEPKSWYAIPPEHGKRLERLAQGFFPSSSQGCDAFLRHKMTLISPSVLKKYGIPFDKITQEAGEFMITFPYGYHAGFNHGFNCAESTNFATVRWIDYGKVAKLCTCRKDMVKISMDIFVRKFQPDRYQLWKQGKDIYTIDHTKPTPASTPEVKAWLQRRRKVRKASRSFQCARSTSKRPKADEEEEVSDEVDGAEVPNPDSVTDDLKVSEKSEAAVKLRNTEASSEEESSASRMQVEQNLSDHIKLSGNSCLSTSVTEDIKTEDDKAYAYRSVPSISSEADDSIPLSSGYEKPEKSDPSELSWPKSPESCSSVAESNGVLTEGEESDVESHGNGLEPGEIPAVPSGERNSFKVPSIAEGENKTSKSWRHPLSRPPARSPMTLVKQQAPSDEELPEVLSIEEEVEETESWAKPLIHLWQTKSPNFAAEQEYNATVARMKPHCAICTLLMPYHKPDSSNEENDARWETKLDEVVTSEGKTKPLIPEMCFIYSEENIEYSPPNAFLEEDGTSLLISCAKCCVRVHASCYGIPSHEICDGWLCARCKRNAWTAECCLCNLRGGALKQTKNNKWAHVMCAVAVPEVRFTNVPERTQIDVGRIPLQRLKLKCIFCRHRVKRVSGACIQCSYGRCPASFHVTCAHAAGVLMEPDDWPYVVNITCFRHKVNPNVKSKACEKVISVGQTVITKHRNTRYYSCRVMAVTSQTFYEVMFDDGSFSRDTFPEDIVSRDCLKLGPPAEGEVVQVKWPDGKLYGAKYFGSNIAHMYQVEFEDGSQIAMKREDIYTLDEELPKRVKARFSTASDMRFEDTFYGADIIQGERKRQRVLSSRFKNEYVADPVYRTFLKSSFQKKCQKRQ

HEK293 [5] = assay: SAR Analysis of small molecule inhibitors of B-cell specific antigen receptor-induced NF-kB activation in a HEK-293T cell line using a luminescence assay - Set 2. [Related pubchem assays (depositor defined):AID435022, AID435025, AID489021]; format: functional, cell-based; conditions: Homo sapiens
Jurkat = assay: SAR Analysis of small molecule inhibitors of […] specific antigen receptor-induced NF-kB activation in a Jurkat cell line using a luminescence assay - Set 3. [Related pubchem assays (depositor defined):AID435022, AID435025, AID465]; format: functional, cell-based; conditions: Homo sapiens
HEK293 [6] = assay: cytotoxicity in HEK293T NF-kB-Luc cells, SAR follow-up, cytotoxicity control for NF-kB activator project, cell-based, resazurin fluorescence (AID 493251); format: functional; conditions: Homo sapiens
[7] = target: T2, Tyrosine-protein phosphatase non-receptor type 22 (Homo sapiens, UniProt Q9Y2R2); format: functional
T2 sequence (Q9Y2R2 whole entry): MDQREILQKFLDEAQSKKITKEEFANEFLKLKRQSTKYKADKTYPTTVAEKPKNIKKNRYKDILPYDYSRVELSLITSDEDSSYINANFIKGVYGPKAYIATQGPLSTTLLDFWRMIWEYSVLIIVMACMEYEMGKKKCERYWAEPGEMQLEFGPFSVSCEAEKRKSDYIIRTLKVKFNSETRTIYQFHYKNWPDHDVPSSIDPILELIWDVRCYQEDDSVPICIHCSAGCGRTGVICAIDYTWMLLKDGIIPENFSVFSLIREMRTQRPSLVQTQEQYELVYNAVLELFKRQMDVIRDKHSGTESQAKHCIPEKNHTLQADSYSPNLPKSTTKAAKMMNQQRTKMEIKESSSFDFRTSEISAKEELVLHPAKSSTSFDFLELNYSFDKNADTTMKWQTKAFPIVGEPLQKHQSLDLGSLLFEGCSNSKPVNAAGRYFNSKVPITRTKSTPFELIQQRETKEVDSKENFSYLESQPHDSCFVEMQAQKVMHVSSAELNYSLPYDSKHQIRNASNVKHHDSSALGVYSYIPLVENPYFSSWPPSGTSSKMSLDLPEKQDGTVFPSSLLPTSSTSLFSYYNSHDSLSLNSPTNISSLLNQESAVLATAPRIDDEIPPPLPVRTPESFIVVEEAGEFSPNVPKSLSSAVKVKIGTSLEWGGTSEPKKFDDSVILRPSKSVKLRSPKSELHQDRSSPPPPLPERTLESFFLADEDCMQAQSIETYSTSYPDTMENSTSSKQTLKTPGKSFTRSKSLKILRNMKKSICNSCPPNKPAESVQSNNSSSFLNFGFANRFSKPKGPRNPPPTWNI

[8] = target: T2, Tyrosine-protein phosphatase non-receptor type 22; format: functional; remark: listed apart in the source
[9] = target: T3, Tyrosine-protein phosphatase non-receptor type 7 (Homo sapiens, UniProt P35236); format: functional
T3 sequence (P35236 whole entry): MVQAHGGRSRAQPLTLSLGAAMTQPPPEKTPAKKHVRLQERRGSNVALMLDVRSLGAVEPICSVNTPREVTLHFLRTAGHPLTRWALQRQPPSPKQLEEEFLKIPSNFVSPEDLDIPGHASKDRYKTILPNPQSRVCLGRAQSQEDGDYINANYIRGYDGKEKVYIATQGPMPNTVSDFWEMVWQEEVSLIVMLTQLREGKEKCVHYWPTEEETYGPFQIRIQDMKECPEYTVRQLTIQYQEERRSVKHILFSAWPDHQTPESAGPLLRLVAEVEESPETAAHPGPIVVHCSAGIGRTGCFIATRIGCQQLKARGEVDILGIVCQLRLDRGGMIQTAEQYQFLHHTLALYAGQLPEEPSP

Sequence of Intestinal-type alkaline phosphatase (Mus musculus, UniProt P24822) (P24822 whole entry): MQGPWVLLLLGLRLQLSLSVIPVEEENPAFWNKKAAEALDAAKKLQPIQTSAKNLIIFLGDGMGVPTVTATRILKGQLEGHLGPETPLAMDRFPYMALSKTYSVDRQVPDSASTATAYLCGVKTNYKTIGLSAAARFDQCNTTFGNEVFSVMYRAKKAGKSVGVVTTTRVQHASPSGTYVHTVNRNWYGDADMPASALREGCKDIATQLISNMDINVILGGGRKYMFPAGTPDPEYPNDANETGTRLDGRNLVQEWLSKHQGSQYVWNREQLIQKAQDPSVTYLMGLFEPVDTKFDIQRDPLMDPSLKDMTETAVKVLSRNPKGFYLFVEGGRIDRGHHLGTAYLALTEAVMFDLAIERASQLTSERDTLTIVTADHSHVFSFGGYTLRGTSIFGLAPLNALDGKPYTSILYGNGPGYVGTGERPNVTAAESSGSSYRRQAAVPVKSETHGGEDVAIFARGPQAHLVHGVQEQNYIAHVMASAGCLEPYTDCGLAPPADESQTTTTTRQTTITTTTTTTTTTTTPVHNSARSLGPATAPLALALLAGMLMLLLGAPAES

SMILES: CC(C)(C)c1ccc(O)c(/N=C/c2cc3c(cc2[N+](=O)[O-])OCO3)c1
- IC50 [1]: 6.39 µM (active)
- IC50 [2]: > 100 µM (inactive)
- IC50 [3]: > 100 µM (inactive)

SMILES: CC(C)CCN(C(=O)C1=COCCO1)c1c(N)n(Cc2ccccc2)c(=O)[nH]c1=O
- AC50 [4]: 20.6 µM (active)

SMILES: CCCCNC(=O)CSCc1nc(-c2ccc(OCC)cc2)oc1C
- IC50 (HEK293 [5]): 38.8 µM (inactive)
- IC50 (Jurkat): > 80 µM (inactive)
- IC50 (HEK293 [6]): 75.3 µM (inactive)

SMILES: Cc1ccccc1Cn1cc(NC(=O)c2nn(C)cc2Cl)cn1
- IC50 [7]: > 79.4 µM (inactive)
- IC50 [8]: > 79.4 µM (inactive)
- IC50 [9]: > 79.4 µM (inactive)
